This note sets out measurements from US20250325711A1, “COVALENT FLUORESCENT PROBES FOR CANNABINOID RECEPTOR 2” (Hoffmann-La Roche Inc., priority 2022, published 2025).

In one test the target is hCB2R (Homo sapiens (Human), UniProt P34972). Kind of test: TR-FRET hCB2R Binding Assay.
Details: not given
For `COc1cc(C(C)(C)CCCCCCN=[N+]=[N-])cc(OC)c1[C@H]1C=C(CNC(=O)CCCCCCCCNC(=O)c2ccc(=O)n(S(=O)(=O)c3cccc(C(=O)NCc4cn(CCOCCNc5ccc([N+](=O)[O-])c6nonc56)nn4)c3)c2)[C@H]2C[C@@H]1C2(C)C` [Example 7, N-(9-((((1S,4S,5S)-4-(4-(8-azido-2-methyloctan-2-yl)-2,6-dimethoxyphenyl)-6,6-dimethylbicyclo[3.1.1]hept-2-en-2-yl)methyl)amino)-9-oxononyl)-1-((3-(((1-(2-(2-((7-nitrobenzo[c][1,2,5]oxadiazol-4-yl)amino)ethoxy)ethyl)-1H-1,2,3-triazol-4-yl)methyl)carbamoyl)phenyl)sulfonyl)-6-oxo-1,6-dihydropyridine-3-carboxamide], the Kd is 8.9 nM.

The same test, now with this note: SNAP-tagged human CB2R HEK293-TR cell membranes, TR-FRET (HTRF) detection, nonspecific binding with 1 μM SR144528; read-out: Kd hCB2R.
Consider `COc1cc(C(C)(C)CCCCCCN=[N+]=[N-])cc(OC)c1[C@H]1C=C(CNC(=O)CCCCNC(=O)c2ccc(=O)n(S(=O)(=O)c3cccc(C(=O)NCCc4cn(CCOCCNc5ccc([N+](=O)[O-])c6nonc56)nn4)c3)c2)[C@H]2C[C@@H]1C2(C)C` [Example 1, N-(5-((((1S,4S,5S)-4-(4-(8-azido-2-methyloctan-2-yl)-2,6-dimethoxyphenyl)-6,6-dimethylbicyclo[3.1.1]hept-2-en-2-yl)methyl)amino)-5-oxopentyl)-1-((3-((2-(1-(2-(2-((7-nitrobenzo[c][1,2,5]oxadiazol-4-yl)amino)ethoxy)ethyl)-1H-1,2,3-triazol-4-yl)ethyl)carbamoyl)phenyl)sulfonyl)-6-oxo-1,6-dihydropyridine-3-carboxamide], for which the Kd was 9.1 nM. Regarding `COc1cc(C(C)(C)CCCCCCN=[N+]=[N-])cc(OC)c1[C@H]1C=C(CNC(=O)CCCCCCNC(=O)c2ccc(=O)n(S(=O)(=O)c3cccc(C(=O)NCc4cn(CCOCCNc5ccc([N+](=O)[O-])c6nonc56)nn4)c3)c2)[C@H]2C[C@@H]1C2(C)C` [Example 2, N-(7-((((1S,4S,5S)-4-(4-(8-azido-2-methyloctan-2-yl)-2,6-dimethoxyphenyl)-6,6-dimethylbicyclo[3.1.1]hept-2-en-2-yl)methyl)amino)-7-oxoheptyl)-1-((3-(((1-(2-(2-((7-nitrobenzo[c][1,2,5]oxadiazol-4-yl)amino)ethoxy)ethyl)-1H-1,2,3-triazol-4-yl)methyl)carbamoyl)phenyl)sulfonyl)-6-oxo-1,6-dihydropyridine-3-carboxamide], the Kd was found to be 22.9 nM.

For `CCCCCCC(C)(C)c1cc(OC)c([C@H]2C=C(CNC(=O)CCCCCCNC(=O)c3ccc(=O)n(S(=O)(=O)c4cccc(C(=O)NCc5cn(CCOCCNc6ccc([N+](=O)[O-])c7nonc67)nn5)c4)c3)[C@H]3C[C@@H]2C3(C)C)c(OC)c1` [Example 3, N-(7-((((1S,4S,5S)-4-(2,6-dimethoxy-4-(2-methyloctan-2-yl)phenyl)-6,6-dimethylbicyclo[3.1.1]hept-2-en-2-yl)methyl)amino)-7-oxoheptyl)-1-((3-(((1-(2-(2-((7-nitrobenzo[c][1,2,5]oxadiazol-4-yl)amino)ethoxy)ethyl)-1H-1,2,3-triazol-4-yl)methyl)carbamoyl)phenyl)sulfonyl)-6-oxo-1,6-dihydropyridine-3-carboxamide], the Kd worked out at 24.2 nM.

As to `COc1cc(C(C)(C)CCCCCCN=[N+]=[N-])cc(OC)c1[C@H]1C=C(CNC(=O)CCCCCCNC(=O)c2ccc(=O)n(S(=O)(=O)c3cccc(C(=O)NCc4cn(CCOCCOCCOCCOCCNc5ccc([N+](=O)[O-])c6nonc56)nn4)c3)c2)[C@H]2C[C@@H]1C2(C)C` [Example 4, N-(7-((((1S,4S,5S)-4-(4-(8-azido-2-methyloctan-2-yl)-2,6-dimethoxyphenyl)-6,6-dimethylbicyclo[3.1.1]hept-2-en-2-yl)methyl)amino)-7-oxoheptyl)-1-((3-(((1-(14-((7-nitrobenzo[c][1,2,5]oxadiazol-4-yl)amino)-3,6,9,12-tetraoxatetradecyl)-1H-1,2,3-triazol-4-yl)methyl)carbamoyl)phenyl)sulfonyl)-6-oxo-1,6-dihydropyridine-3-carboxamide], the Kd was found to be 4.5 nM. Same read-out and setting: as for `CCN(CC)c1ccc2cc(C=Cc3ccc(S(=O)(=O)[O-])c[n+]3CCCCCC(=O)NCCOCCn3cc(CNC(=O)c4cccc(S(=O)(=O)n5cc(C(=O)NCCCCCCC(=O)NCC6=C[C@H](c7c(OC)cc(C(C)(C)CCCCCCN=[N+]=[N-])cc7OC)[C@@H]7C[C@H]6C7(C)C)ccc5=O)c4)nn3)c(=O)oc2c1` [Example 5, 1-(6-((2-(2-(4-((3-((5-((7-((((1S,4S,5S)-4-(4-(8-azido-2-methyloctan-2-yl)-2,6-dimethoxyphenyl)-6,6-dimethylbicyclo[3.1.1]hept-2-en-2-yl)methyl)amino)-7-oxoheptyl)carbamoyl)-2-oxopyridin-1 (2H)-yl)sulfonyl)benzamido)methyl)-1H-1,2,3-triazol-1-yl)ethoxy)ethyl)amino)-6-oxohexyl)-6-(2-(7-(diethylamino)-2-oxo-2H-chromen-3-yl)vinyl)pyridin-1-ium-3-sulfonate], the figure is 59 nM; as for `COc1cc(C(C)(C)CCCCCCN=[N+]=[N-])cc(OC)c1[C@H]1C=C(CNC(=O)CCCCCCNC(=O)c2ccc(S(=O)(=O)N(Cc3ccccn3)C(=O)CCCCCNc3ccc([N+](=O)[O-])c4nonc34)cc2)[C@H]2C[C@@H]1C2(C)C` [Example 8, N-(7-((((1S,4S,5S)-4-(4-(8-azido-2-methyloctan-2-yl)-2,6-dimethoxyphenyl)-6,6-dimethylbicyclo[3.1.1]hept-2-en-2-yl)methyl)amino)-7-oxoheptyl)-4-(N-(6-((7-nitrobenzo[c][1,2,5]oxadiazol-4-yl)amino)hexanoyl)-N-(pyridin-2-ylmethyl)sulfamoyl)benzamide], 12 nM. Same read-out and setting: as for `CCCCCCC(C)(C)c1cc(OC)c([C@H]2C=C(CNC(=O)CCCCCCNC(=O)c3ccc(S(=O)(=O)N(Cc4ccccn4)C(=O)CCCCCNc4ccc([N+](=O)[O-])c5nonc45)cc3)[C@H]3C[C@@H]2C3(C)C)c(OC)c1` [Example 9, N-(7-((((1S,4S,5S)-4-(2,6-dimethoxy-4-(2-methyloctan-2-yl)phenyl)-6,6-dimethylbicyclo[3.1.1]hept-2-en-2-yl)methyl)amino)-7-oxoheptyl)-4-(N-(6-((7-nitrobenzo[c][1,2,5]oxadiazol-4-yl)amino)hexanoyl)-N-(pyridin-2-ylmethyl)sulfamoyl)benzamide], the figure is 35.5 nM. As to `COc1cc(C(C)(C)CCCCCCN=[N+]=[N-])cc(OC)c1[C@H]1C=C(CNC(=O)CCCCCCNC(=O)c2ccc(S(=O)(=O)N(CC#N)C(=O)CCCCCNc3ccc([N+](=O)[O-])c4nonc34)cc2)[C@H]2C[C@@H]1C2(C)C` [Example 10, N-(7-((((1S,4S,5S)-4-(4-(8-azido-2-methyloctan-2-yl)-2,6-dimethoxyphenyl)-6,6-dimethylbicyclo[3.1.1]hept-2-en-2-yl)methyl)amino)-7-oxoheptyl)-4-(N-(cyanomethyl)-N-(6-((7-nitrobenzo[c][1,2,5]oxadiazol-4-yl)amino)hexanoyl)sulfamoyl)benzamide], the Kd was found to be 3.9 nM. Take `COc1cc(C(C)(C)CCCCCCN=[N+]=[N-])cc(OC)c1[C@H]1C=C(CNC(=O)CCCCCCNC(=O)c2ccc(S(=O)(=O)N(CC#N)C(=O)CCc3cn(CCOCCNc4ccc([N+](=O)[O-])c5nonc45)nn3)cc2)[C@H]2C[C@@H]1C2(C)C` [Example 11, N-(7-((((1S,4S,5S)-4-(4-(8-azido-2-methyloctan-2-yl)-2,6-dimethoxyphenyl)-6,6-dimethylbicyclo[3.1.1]hept-2-en-2-yl)methyl)amino)-7-oxoheptyl)-4-(N-(cyanomethyl)-N-(3-(1-(2-(2-((7-nitrobenzo[c][1,2,5]oxadiazol-4-yl)amino)ethoxy)ethyl)-1H-1,2,3-triazol-4-yl)propanoyl)sulfamoyl)benzamide]: the Kd was determined as 152 nM. As for `CCN(CC)c1ccc2cc(C=Cc3ccc(S(=O)(=O)[O-])c[n+]3CCCCCC(=O)NCCOCCn3cc(CCC(=O)N(CC#N)S(=O)(=O)c4ccc(C(=O)NCCCCCCC(=O)NCC5=C[C@H](c6c(OC)cc(C(C)(C)CCCCCCN=[N+]=[N-])cc6OC)[C@@H]6C[C@H]5C6(C)C)cc4)nn3)c(=O)oc2c1` [Example 12, 1-(6-((2-(2-(4-(3-((4-((7-((((1S,4S,5S)-4-(4-(8-azido-2-methyloctan-2-yl)-2,6-dimethoxyphenyl)-6,6-dimethylbicyclo[3.1.1]hept-2-en-2-yl)methyl)amino)-7-oxoheptyl)carbamoyl)-N-(cyanomethyl)phenyl)sulfonamido)-3-oxopropyl)-1H-1,2,3-triazol-1-yl)ethoxy)ethyl)amino)-6-oxohexyl)-6-(2-(7-(diethylamino)-2-oxo-2H-chromen-3-yl)vinyl)pyridin-1-ium-3-sulfonate], the Kd came to 25 nM.

Consider `COc1cc(C(C)(C)CCCCCCN=[N+]=[N-])cc(OC)c1[C@H]1C=C(CNC(=O)CCCCCCNC(=O)c2ccc(S(=O)(=O)N(CC#N)C(=O)CCc3cn(CCOCCNC(=O)c4ccc5c(c4)C4(OC5=O)c5ccc(N6CCC6)cc5[Si](C)(C)c5cc(N6CCC6)ccc54)nn3)cc2)[C@H]2C[C@@H]1C2(C)C` [Example 13, 3,7-di(azetidin-1-yl)-N-(2-(2-(4-(3-((4-((7-((((1S,4S,5S)-4-(4-(8-azido-2-methyloctan-2-yl)-2,6-dimethoxyphenyl)-6,6-dimethylbicyclo[3.1.1]hept-2-en-2-yl)methyl)amino)-7-oxoheptyl)carbamoyl)-N-(cyanomethyl)phenyl)sulfonamido)-3-oxopropyl)-1H-1,2,3-triazol-1-yl)ethoxy)ethyl)-5,5-dimethyl-3′-oxo-3′H,5H-spiro[dibenzo[b,e]siline-10,1′-isobenzofuran]-6′-carboxamide], for which the Kd was 124 nM. Take `C#CCCC(=O)N(CC#N)S(=O)(=O)c1ccc(C(=O)NCCCCCCC(=O)NCC2=C[C@H](c3c(OC)cc(C(C)(C)CCCCCCN=[N+]=[N-])cc3OC)[C@@H]3C[C@H]2C3(C)C)cc1` [Example 14, N-(7-((((1S,4S,5S)-4-(4-(8-azido-2-methyloctan-2-yl)-2,6-dimethoxyphenyl)-6,6-dimethylbicyclo[3.1.1]hept-2-en-2-yl)methyl)amino)-7-oxoheptyl)-4-(N-(cyanomethyl)-N-(pent-4-ynoyl)sulfamoyl)benzamide]: the Kd came to 1.5 nM.
